Drawing on ChEMBL document CHEMBL1122611, “Synthesis and in vitro biological evaluation of N-[(5-amino-1-beta-D-ribofuranosyl-1H-imidazol-4-yl)carbonyl]-3- (hydroxynitrosamino)-L-alanine (L-alanosine AICO ribonucleoside)” (1984), this text covers EC50 and ED50 for two compounds.

In test [1] the test system is HL-60. Kind of test: In vitro evaluation of inhibitory activity of HL60 human promyelocytic tumor cell. The class given is functional. The following applies: read-out: ED50 (the source's name).
Test [2] in a line: Evaluation of inhibitory activity against adenylosuccinate synthetase.
Test [3] in a line: Evaluation of inhibitory activity of adenylosuccinate synthetase.

Molecules are shown by their SMILES. pEC50: −log10 of the molar value.

Take `N[C@@H](CN(O)N=O)C(=O)O` [LALANOSINE]: in test [1], the pEC50 was 5.70. The ED50 in test [2] is 7000 µM.

On to `Nc1c(C(=O)NC(CN(O)N=O)C(=O)O)ncn1[C@@H]1O[C@H](CO)[C@@H](O)[C@H]1O` (stereo not given in full), for which the pEC50 in test [1] was under 4.00. For the same compound, the figures for the ED50 in test [3] and in test [2] were 0.3 µM and over 1000 µM, respectively.
